This is an account of results in publication PMC6934184, “Selective DNA-PKcs inhibition extends the therapeutic index of localized radiotherapy and chemotherapy” (The Journal of Clinical Investigation, 2019).

In this experiment the target is T1, FGFR1 (Homo sapiens, UniProt P11362).
T1 construct: purchased Thermo Fisher Scientific (Life Technologies) SelectScreen
Put plainly: SelectScreen Z'LYTE. The experiment is classed as biochemical. An outline of the steps:
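Percent values come from Thermo SelectScreen profiling of NU5455, combining activity and binding assays. CSF1R was run in Z'LYTE format at Km app ATP, and CAMK1 in Adapta format with ATP listed at 10.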

T1 sequence (P11362 22-822): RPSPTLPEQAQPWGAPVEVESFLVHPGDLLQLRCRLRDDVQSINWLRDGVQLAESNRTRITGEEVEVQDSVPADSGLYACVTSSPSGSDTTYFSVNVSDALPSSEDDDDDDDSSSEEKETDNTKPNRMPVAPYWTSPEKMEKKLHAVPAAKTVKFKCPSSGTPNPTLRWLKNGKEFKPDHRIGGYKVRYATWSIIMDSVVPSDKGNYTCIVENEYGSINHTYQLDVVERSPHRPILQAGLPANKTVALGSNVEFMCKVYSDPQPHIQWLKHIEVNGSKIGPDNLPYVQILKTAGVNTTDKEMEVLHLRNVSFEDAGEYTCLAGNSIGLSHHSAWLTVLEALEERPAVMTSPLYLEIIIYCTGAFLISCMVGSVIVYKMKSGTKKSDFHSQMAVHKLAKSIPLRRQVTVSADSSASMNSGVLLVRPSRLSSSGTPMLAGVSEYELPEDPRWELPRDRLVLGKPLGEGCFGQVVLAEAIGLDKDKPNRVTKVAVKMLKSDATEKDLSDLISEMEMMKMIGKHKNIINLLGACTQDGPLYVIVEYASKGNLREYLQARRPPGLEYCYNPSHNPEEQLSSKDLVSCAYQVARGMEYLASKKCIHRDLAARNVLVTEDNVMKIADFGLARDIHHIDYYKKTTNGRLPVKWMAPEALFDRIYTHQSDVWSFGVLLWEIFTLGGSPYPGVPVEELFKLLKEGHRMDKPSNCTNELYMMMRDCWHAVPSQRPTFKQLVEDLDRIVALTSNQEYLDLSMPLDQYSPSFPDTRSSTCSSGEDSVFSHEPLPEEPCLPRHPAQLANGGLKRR

For the compound `CN(C(=O)CN1CCOCC1)c1ccc2sc3c(-c4cccc5c(=O)cc(N6CC7CCC(C6)O7)oc45)cccc3c2c1` [NU5455], the inhibition (as a rule, the share of the control response that was lost under treatment) at 1 µM came to 4.7%.
